Assay results taken from publication PMC6037691, “Selenazolyl-hydrazones as Novel Selective MAO Inhibitors With Antiproliferative and Antioxidant Activities: Experimental and In-silico Studies” (Frontiers in Chemistry, 2018).

Tests used:
[1] = molecular target: T1, MAO A (Homo sapiens, UniProt P21397); assay: MAO A inhibition, discontinuous fluorimetric kynuramine assay; assay type: biochemical; conditions: for inhibition at 1 µM: 1 μM inhibitor, mean ± SD, n = 2, normalized to control
T1 construct: purchased Sigma-Aldrich
T1 sequence (P21397 1-527): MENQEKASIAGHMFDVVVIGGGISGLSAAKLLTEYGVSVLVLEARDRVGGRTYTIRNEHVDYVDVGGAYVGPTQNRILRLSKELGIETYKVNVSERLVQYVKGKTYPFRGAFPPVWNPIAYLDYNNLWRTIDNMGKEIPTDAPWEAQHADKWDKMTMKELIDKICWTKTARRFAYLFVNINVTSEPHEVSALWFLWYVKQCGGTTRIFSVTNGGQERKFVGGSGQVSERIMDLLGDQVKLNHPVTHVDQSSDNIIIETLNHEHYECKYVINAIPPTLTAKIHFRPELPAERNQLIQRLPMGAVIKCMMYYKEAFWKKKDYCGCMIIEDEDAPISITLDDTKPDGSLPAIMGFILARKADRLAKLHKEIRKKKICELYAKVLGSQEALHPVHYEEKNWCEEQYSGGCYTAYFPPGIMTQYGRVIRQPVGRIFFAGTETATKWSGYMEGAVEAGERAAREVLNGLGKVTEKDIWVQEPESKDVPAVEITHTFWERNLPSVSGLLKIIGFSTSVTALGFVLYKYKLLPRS
Protocol: (§1) MAO A and B inhibition capacities were investigated using a discontinuous fluorimetric assay (Meiring et al., [2013]) as described previously by using human recombinant membrane-bound MAO purchased from Sigma-Aldrich (Affini et al., [2018]). Briefly, remained enzyme activity with inhibitor, either 1 μM (one-point) or concentrations ranging from 0.0001 to 10 μM, was assessed in the presence of kynuramine [2 × KM, KM = 20 μM (MAO A), KM = 30 μM (MAO B)] in potassium phosphate buffer (pH 7.4). Reactions were started by addition of enzyme and stopped by manual addition of sodium hydroxide (2 N) after 20 min. Enzyme activity was determined by detection of 4-hydroxyquinoline (λEx = 320 nm, λEm = 405 nm). Data were analyzed using GraphPad PRISM 6. For one-point measurements data were calculated as percentage of control and expressed as mean ± standard deviation (%). […] Data were obtained from two (one-point measurements) or at least three (IC50 values) independent experiments, each performed in duplicates.

[2] = molecular target: T2, MAO B (Homo sapiens, UniProt P27338); assay: MAO B inhibition, discontinuous fluorimetric kynuramine assay; assay type: biochemical; conditions: for inhibition at 1 µM: 1 μM inhibitor, mean ± SD, n = 2, normalized to control
T2 construct: purchased Sigma-Aldrich
T2 sequence (P27338 1-520): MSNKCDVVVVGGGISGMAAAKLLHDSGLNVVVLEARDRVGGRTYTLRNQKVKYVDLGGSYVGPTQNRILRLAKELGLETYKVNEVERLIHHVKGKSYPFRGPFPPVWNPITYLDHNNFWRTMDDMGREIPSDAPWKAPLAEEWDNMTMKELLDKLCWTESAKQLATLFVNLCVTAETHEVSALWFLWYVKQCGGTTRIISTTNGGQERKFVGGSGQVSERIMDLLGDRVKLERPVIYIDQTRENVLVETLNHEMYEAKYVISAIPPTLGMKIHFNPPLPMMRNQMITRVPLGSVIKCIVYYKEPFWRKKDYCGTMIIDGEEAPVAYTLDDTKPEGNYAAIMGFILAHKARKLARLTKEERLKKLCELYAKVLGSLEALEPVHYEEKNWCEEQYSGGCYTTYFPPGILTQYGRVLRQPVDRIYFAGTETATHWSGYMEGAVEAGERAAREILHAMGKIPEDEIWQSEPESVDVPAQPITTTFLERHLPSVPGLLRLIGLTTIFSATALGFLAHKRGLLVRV
Protocol: as §1

[3] = tested on: HBL-100 (breast); assay: Antiproliferative activity, HBL-100; assay type: cell-based, human; conditions: for GI50: Homo sapiens
Protocol: (§2) The in vitro antiproliferative activity of investigated compounds was evaluated against six human solid tumor cell lines: A549 (non-small cell lung), HBL-100, (breast), HeLa (cervix), SW1573 (non-small cell lung), as drug sensitive lines, T-47D (breast) and WiDr (colon) as drug resistant lines. These cell lines were a kind gift from Prof. G. J. Peters (VU Medical Center, Amsterdam, The Netherlands). For selectivity studies, the human fibroblasts BJ-hTert cell line was used, which was obtained from Dr. R. Freire (HUC, Tenerife, Canary Islands). Cells were kept in culture medium under standard conditions: RPMI 1640 medium, fetal bovine serum (5%), glutamine (2 mM), penicillin G (100 units/mL) and streptomycin (0.1 mg/mL). Antiproliferative tests were conducted as described earlier (Skehan et al., [1990]; Miranda et al., [2006]). Tested compounds were dissolved in DMSO at an initial concentration of 40 mM. DMSO was used as negative control (0.25% v/v). Antiproliferative activity of the compounds was expressed as GI50, which is the concentration of the compound that inhibits 50% of the culture growth.

[4] = tested on: HeLa (cervix); assay: Antiproliferative activity, HeLa; assay type: cell-based, human; conditions: for GI50: Homo sapiens
Protocol: as §2

[5] = tested on: six human solid tumor cell lines; assay: Antiproliferative activity, panel as a whole; assay type: cell-based; parameters: key: moderate activity (GI50 = 10–100 μM); good activity (GI50 = 1–10 μM); inactive (GI50 > 100 μM); conditions: five cell lines of the six
Protocol: as §2

[6] = mean, 95% CI, at least three experiments

Compound `C(=NNc1nc(-c2ccccc2)c[se]1)c1ccccc1` [Compound 1, 2-(2-benzylidenehydrazinyl)-4-phenyl-1,3-selenazole] has an inhibition at 1 µM [1] of -6.8 ± 12.6%, an IC50 [1, 6] of over 10 µM and an inhibition at 1 µM [2] of 89.4 ± 1.5%. For the same compound, the IC50 [2, 6] was 0.252 µM, the “antiproliferative activity class HBL-100” value [3] was “moderate activity (moderate activity (GI50 = 10–100 μM))” and the GI50 [3] was 91 ± 12 µM. For the same compound, the “antiproliferative activity class HeLa” value [4] was “moderate activity (moderate activity (GI50 = 10–100 μM))” and the GI50 [4] was 41 ± 9.5 µM.
For `COc1ccc(-c2c[se]c(NN=Cc3ccccc3)n2)cc1` [Compound 1-OMe, 2-(2-benzylidenehydrazinyl)-4-(4-methoxyphenyl)-1,3-selenazole], the inhibition at 1 µM [1] was 32.4 ± 3.3%, the inhibition at 1 µM [2] was 33 ± 11.6% and the GI50 [3] was over 100 µM. For the same compound, the GI50 [4] was over 100 µM and the “antiproliferative activity class against five cell lines” value [5] was “inactive”.
Work on `O=[N+]([O-])c1ccccc1C=NNc1nc(-c2ccccc2)c[se]1` [Compound 2, 2-(2-(2-nitrobenzylidene)hydrazinyl)-4-phenyl-1,3-selenazole] yielded an inhibition at 1 µM [1] of 26.5 ± 3.7%, an inhibition at 1 µM [2] of 64.8 ± 6.1% and a GI50 [3] of 21 ± 8.6 µM. The “antiproliferative activity class HeLa” value [4] was “good activity (good activity (GI50 = 1–10 μM))” and the GI50 [4] was 6 ± 0.7 µM.
Compound `Cc1ccc(-c2c[se]c(NN=Cc3ccccc3[N+](=O)[O-])n2)cc1` [Compound 2-Me, 2-(2-(2-nitrobenzylidene)hydrazinyl)-4-(p-tolyl)-1,3-selenazole] has an inhibition at 1 µM [1] of 17.2 ± 1.9%, an inhibition at 1 µM [2] of 22.1 ± 8.7% and a GI50 [3] of 95 ± 8.1 µM. The “antiproliferative activity class HeLa” value [4] was “good activity (good activity (GI50 = 1–10 μM))” and the GI50 [4] was 7.4 ± 1.4 µM.
`COc1ccc(-c2c[se]c(NN=Cc3ccccc3[N+](=O)[O-])n2)cc1` [Compound 2-OMe, 4-(4-methoxyphenyl)-2-(2-(2-nitrobenzylidene)hydrazinyl)-1,3-selenazole] was tested, and the inhibition at 1 µM [1] was 28 ± 4%, the inhibition at 1 µM [2] was 35.9 ± 11.2% and the GI50 [3] was over 100 µM. It also gave a GI50 [4] of 49 ± 12 µM.
Work on `O=[N+]([O-])c1cccc(C=NNc2nc(-c3ccccc3)c[se]2)c1` [Compound 3, 2-(2-(3-nitrobenzylidene)hydrazinyl)-4-phenyl-1,3-selenazole] yielded an inhibition at 1 µM [1] of 32.7 ± 6.2%, an inhibition at 1 µM [2] of 57.5 ± 11.4% and a GI50 [3] of 28 ± 0.8 µM. It also gave a GI50 [4] of 24 ± 7.1 µM.
`Cc1ccc(-c2c[se]c(NN=Cc3cccc([N+](=O)[O-])c3)n2)cc1` [Compound 3-Me, 2-(2-(3-nitrobenzylidene)hydrazinyl)-4-(p-tolyl)-1,3-selenazole] gave an inhibition at 1 µM [1] of 13.4 ± 2.4%, an inhibition at 1 µM [2] of 7.4 ± 27% and a GI50 [3] of 60 ± 9.5 µM. For the same compound, the GI50 [4] was 31 ± 4 µM.
With `COc1ccc(-c2c[se]c(NN=Cc3cccc([N+](=O)[O-])c3)n2)cc1` [Compound 3-OMe, 4-(4-methoxyphenyl)-2-(2-(3-nitrobenzylidene)hydrazinyl)-1,3-selenazole] the inhibition at 1 µM [1] was 31.2 ± 1.6%, the inhibition at 1 µM [2] was 23.8 ± 7.7% and the GI50 [3] was over 100 µM. It also gave a GI50 [4] of 26 ± 2 µM.
